Source: US10385003B2, “Ophthalmic formulation” (priority 2011, dated 2019)
“Also recorded” adds a separate entry of the source. Like-named read-outs stand apart in the source and are kept apart here.

Experiments:
[1] = Surface pressure-area (Π-A) measurements of pure lipid films on a Langmuir-Blodgett minitrough (Example 5, FIG. 1); type: physicochemical; conditions: pure film at air-buffer interface, 20° C. and 34° C.
Description: (§1) The physico-chemical properties of certain wax esters, meibomian lipids, and compounds of formula (I) alone or mixed with human meibum were characterized on a Langmuir-Blodgett minitrough by means of surface pressure-area (Π-A) measurements.
(§2) A buffer (NaCl: 6.63 g/L, KCl: 1.72 g/L, NaHCO3: 1.38 g/L, CaCl2.2H2O: 0.15 g/L, NaH2PO4.H2O: 0.10 g/L and MOPS: 4.18 g/L dissolved in MilliQ water) was added to a double barrier minitrough (Nima Technology Ltd, UK; Working surface area 15 cm^2−80 cm^2). Purified preparations of wax esters in chloroform (1 mg/mL), meibomian lipids in chloroform (1 mg/mL), and compounds of formula (I) in chloroform (ranging from 1.4 μmol to 0.1 μmol) alone or mixed with human meibum at different ratios, were spread on the surface (air-buffer interface) of the buffer subphase. Dynamic Π-A profiles of films at the air-buffer interface of the Langmuir trough were collected using software supplied by NIMA Technology. Surface pressure was monitored using a paper plate connected to a Wilhelmy balance. Compression and expansion cycles were conducted over an area (A) of 79 cm^2−16 cm^2 at a barrier rate of 15 cm^2/min and at a temperature of 20° C. and 34° C.
This is indicated by the take-off moving to the left of the x-axis (indicating collapse), whereas the take-off for the compounds of formula (I) remains constant.

[2] = Π-A isocycles of equimolar pure lipid films on artificial tear buffer, Langmuir trough (Example 6, FIG. 4); type: physicochemical; conditions: for change of maximum surface pressure (Πmax) with increasing isocycles / change of Π-A profile / take-off through repeated isocycles: 7.5 nmol pure film; for change of maximum surface pressure (Πmax) with increasing isocycles / change of Π-A profile / take-off through repeated isocycles / surface activity of pure film: 35° C.; for surface area per molecule on take-off: pure film, estimated; for surface activity of pure film: 7.5 nmol film
Description: (§3) Freshly synthesised (O-oleoyl)-ω-hydroxypalmitic acid (an example of a compound of formula (I)) was spread either alone or mixed with human meibum on a Langmuir trough on an artificial tear buffer. Pressure-area isocycle profiles were recorded and compared with those of palmityl oleate and oleic acid, alone or mixed with meibum. These measurements were accompanied by fluorescence microscopy of meibum mixed films during pressure-area isocycles.
The surface characteristics of (O-oleoyl)-ω-hydroxypalmitic acid were compared with palmityl oleate (a structurally similar wax ester) and oleic acid (which is equivalent to the fatty acid (amphiphilic) component of (O-oleoyl)-ω-hydroxypalmitic acid).
Films were formed by spreading 7.5 nmol of the lipids dissolved in chloroform onto the cleaned surface (air-buffer interface) of an artificial tear buffer (NaCl: 6.63 g/L, KCl: 1.72 g/L, NaHCO3: 1.38 g/L, CaCl2.2H2O: 0.15 g/L, NaH2PO4×H2O: 0.10 g/L and MOPS: 4.18 g/L dissolved in ion exchange ultrapure water) in a double barrier 80 mL temperature-controlled (35° C.) Langmuir trough (Nima Technology Ltd, UK). After 5 isocycles were obtained, the temperature was lowered to 20° C. A Whilhelmy balance (Whatman No. 1 filter paper) was used to record surface pressure during isocycles (79 cm^2-16 cm^2 at 10 cm^2/min).

[3] = Π-A isocycles of human meibum films mixed with model lipids (Example 6, FIG. 5); type: physicochemical; conditions: for change of Πmax in subsequent isocycles: meibum 20 μg mixed with lipid, 20° C.; for Πmax in the first isocycle versus meibomian lipid films alone: meibum 20 μg mixed with −10 mol % lipid, spread at 20° C.
Description: as §3
Collection of meibomian lipids was in accordance with the Tenets of Helsinki. Human meibomian lipids were gently squeezed out of the meibomian glands of a single subject's lower eyelids by applying pressure to the eyelids using sterile cotton swabs on either side of the lid. Multiple collections were carried out and pooled to provide consistency in the experiments. The subject was devoid of any external signs or symptoms of ocular pathology including dry eye disease. The expressed lipids were harvested using a sterile stainless steel spatula and dissolved in chloroform. The meibomian lipids were dried through vacuum concentration and centrifugation, and then reconstituted in chloroform spiked with 0.5% (w/w) of the fluorophore, 1-palmitoyl-2-[12-[(7-nitro-2-1,3-benzoxadiazol-4-yl)amino]dodecanoyl]-sn-glycero-3-phosphatidylcholine] (NBD-DPPC) (Avanti Polar Lipids, Auspep Pty. Ltd (Tullamarine, Australia)) and stored at −20° C. until used.
The results were compared with mixtures with meibomian lipids. Human meibum (20 μg) was mixed with −10 mol % (O-oleoyl)-ω-hydroxypalmitic acid (2 μg) or with palmityl oleate (1.9 μg) or oleic acid (1.1 μg). These mixtures were spread at 20° C. and 5 isocycles carried out. The film was then heated to 35° C. for another 5 isocycles. The Π-A curves were compared with those for pure meibomian lipid films. In some cases, meibomian lipids doped with 0.5% (w/w) NBD-DPPC were used in order to view the films microscopically.
In general, meibomian films were very tolerant to the changes in their composition, indicated by the fact that the shapes of the different Π-A curves of mixed films were similar to those obtained from films of pure meibomian lipids (FIG. 5). […] Meibum containing fluorophore was spread on artificial tear buffer alone or pre-mixed with each of (O-oleoyl)-ω-hydroxypalmitic acid, palmityl oleate, or oleic acid were spread at 20° C. on the trough. After five isocycles, the trough was heated to 35° C. and five more isocycles were carried out. Then the trough was cooled back to 20° C. and again five more isocycles were run.

[4] = Fluorescence microscopy of meibum mixed films during pressure-area isocycles (Example 6, FIG. 6); type: physicochemical, human; conditions: NBD-DPPC doped meibum, 20° C.
Description: as §3
Collection of meibomian lipids was in accordance with the Tenets of Helsinki. Human meibomian lipids were gently squeezed out of the meibomian glands of a single subject's lower eyelids by applying pressure to the eyelids using sterile cotton swabs on either side of the lid. Multiple collections were carried out and pooled to provide consistency in the experiments. The subject was devoid of any external signs or symptoms of ocular pathology including dry eye disease. […]
Micrographs comparing the appearance of pure meibomian lipid films (Row A) with meibomian lipids mixed with the (O-oleoyl)-ω-hydroxypalmitic acid (Row B), palmityl oleate (Row C) or oleic acid (Row D) at 20° C. […] Although not quantitatively verified, the darker patches appeared to be more prevalent in the mixed films of palmityl oleate and oleic acid than for pure meibomian lipid films.

[5] = Π-A and pressure/time measurements of meibomian lipid films mixed with compounds of formula (I) (Example 5, FIG. 2); type: physicochemical, human
Description: as §1, §2
Adding a small amount of a compound of formula (I) causes fast stabilisation of the film (indicated on the pressure/time curve with the mixture having little change between isocycles) and the maximum surface pressures are much higher.

[6] = Π-A measurements of meibomian lipids from a patient with dry eye disease mixed with a compound of formula (I) (Example 5, FIG. 3); type: physicochemical, human; conditions: dry eye patient meibomian lipids with 3 μL compound
Description: as §2

[7] = meibomian lipids (20 μL) mixed with 3-5 μL compound, FIG. 2

Structure (SMILES): CCCCCCCC/C=C\CCCCCCCC(=O)OCCCCCCCCCCCCCCCC [palmityl oleate, reference compound]
- film collapse during compression/expansion cycles (take-off position) [1]: collapse
- change of maximum surface pressure (Πmax) with increasing isocycles ([2]; FIG. 4): increase in maximum surface pressure
- change of Π-A profile / take-off through repeated isocycles ([2]; FIG. 4): slow shift in the Π-A curve to the left
- area per molecule at flattening of the Π-A curve ([2]; assuming the film is a monolayer up to this point, FIG. 4): about 60 Å^2
- surface area per molecule on take-off [2]: 82 Å^2 per molecule
- change of Πmax in subsequent isocycles [3]: marked increase
- Πmax in the first isocycle versus meibomian lipid films alone [3]: did not influence
- microscopic appearance of meibomian film mixed with lipid [4]: did not appear substantially different from pure meibomian lipid films

Structure (SMILES): CCCCCCCC/C=C\CCCCCCCC(=O)O [oleic acid, reference compound]
- change of maximum surface pressure (Πmax) with increasing isocycles ([2]; FIG. 4): decreases
- change of Π-A profile / take-off through repeated isocycles ([2]; FIG. 4): decreases in take-off
- change of Πmax in subsequent isocycles [3]: decreased
- Πmax in the first isocycle versus meibomian lipid films alone [3]: higher
- microscopic appearance of meibomian film mixed with lipid [4]: did not appear substantially different from pure meibomian lipid films

Structure (SMILES): CCCCCCCCCCCCCCCCCC(=O)OCCCCCCCCCCCCCCCC [palmityl stearate wax ester, palmityl stearate]
- film collapse during compression/expansion cycles (take-off position) [1]: collapse

Structure (SMILES): CCCCCCCC/C=C\CCCCCCCC(=O)OCCCCCCCCCC(=O)O [(O-oleoyl)-10-hydroxycaprinic acid, (O)-oleoyl-10-hydroxydecanoic acid]
- stabilisation of meibomian lipid film [5, 7]: stabilise the films

Structure (SMILES): CCCCCCCC/C=C\CCCCCCCC(=O)OCCCCCCCCCCCCCCCC(=O)O [(O-oleoyl)-16-hydroxypalmitic acid]
- film collapse during compression/expansion cycles (take-off position) [1]: do not collapse
- stabilisation of meibomian lipid film [5, 7]: stabilise the films
- hysteresis of pressure/area curve [6]: increase in hysteresis
- surface pressure of film [6]: increases the surface pressure
- surface activity of pure film ([2]; listed as (O-oleoyl)-w-hydroxypalmitic acid): as surface active as oleic acid films
- surface activity of pure film ([2]; listed as (O-oleoyl)-ω-hydroxypalmitic acid): very surface active; also recorded: much more surface active
- change of Π-A profile / take-off through repeated isocycles ([2]; FIG. 4): little change in its profile
- surface area covered by pure film ([2]; compared with palmityl oleate or oleic acid): much larger surface area than either palmityl oleate or oleic acid
- surface area per molecule on take-off [2]: 131 Å^2 per molecule
- change of Πmax in subsequent isocycles [3]: small increase
- Πmax in the first isocycle versus meibomian lipid films alone [3]: higher

Structure (SMILES): CC/C=C\C/C=C\C/C=C\CCCCCCCC(=O)OCCCCCCCCCCCCCCCCCC [steroyl linolenate wax ester, steroyl linolenate]
- film collapse during compression/expansion cycles (take-off position) [1]: collapse

Structure (SMILES): CCCCCCCCCCCCCCCCCC(=O)OCCCCCCCCCCCCCCCC(=O)O [(O-stearyl)-16-hydroxypalmitic acid, (O)-stearyl-16-hydroxypalmitic acid]
- film collapse during compression/expansion cycles (take-off position) [1]: do not collapse
- stabilisation of meibomian lipid film [5]: stabilise the films
